Laboratory results reported in patent EP4230622A1, “NERVE DAMAGE PREVENTING AND NERVE PROTECTING COMPOUNDS, PREPARATION METHOD THEREOF, PHARMACEUTICAL COMPOSITION THEREOF, AND THEIR USE” (Genhealth Pharma Co., Ltd., priority 2022, dated 2023).

Experiments:
[1] = tested on: male Sprague Dawley rat (SD rat); assay: Evaluation of the effect of preventing nerve damage: transient focal MCAO/R model, infarct volume by TTC staining; assay type: in vivo; settings: 50 mg/kg intraperitoneal injection once 10 minutes before, 1 hour ischemia, 24 hours blood reperfusion, sum of seven brain slices, 5 SD rats
Description: The specific solvent was made of dimethyl sulfoxide (DMSO), cremophor EL (CrEL) and water, with the relative volume ratio of 10:20:70, respectively. Besides the foresaid experimental groups, only pure solvent used was treated as vehicle group, and a sham group, which was not administrated with any compound or solvent or with nylon monofilament to cause obstruction and ischemia, was also included.
In this test example, transient focal Middle Cerebral Artery Occlusion/ Reperfusion model (MCAO/R model) was adopted to simulate ischemic stroke for evaluating the subsequent nerve damage. Specifically, male Sprague Dawley rat (SD rat) was adopted and anaesthetized with 2% isoflurane, and then the right common carotid artery, external carotid artery and internal carotid artery were distinguished among them from the neck.
Next, a nylon monofilament with length of 22 millimeters (mm), size number of 4/0 and capped with polysiloxane was inserted into the external carotid artery and along with the […] of Willis to induce obstruction and ischemia in the middle cerebral artery. After causing obstruction and ischemia for 1 hour, the nylon monofilament was removed to allow the blood recirculated to the brain, in other words, to undergo blood reperfusion.
After blood reperfusion for 24 hours, the rat was sacrificed and the brain thereof was placed into a cooled 0.95% saline. Then, 1 mm part of the brain tip was excised, and the rest of the brain was cut in coronal section to obtain seven slices of brain tissue with each thickness of 2 mm. Next, those sliced brain tissues were infiltrated with 1% 2,3,5-triphenyltetrazolium chloride (TTC) for 30-minute at room temperature (about 25°C to 27°C). Afterward, the sliced brain tissues were […] with a 4% […] solution, and then MacroPATH Digital Imaging System was used to record the images and the obtained images were analyzed by ImageJ 1.52a to count the infarct volume percent, which could represent the degree of nerve damage. The foresaid infarct volume percent was obtained by adding the values acquired by multiplying the proportion of infarct area of each sliced brain tissue with their thickness, and the proportion of infarct area was calculated by the equation: (B-A)/B×100%; wherein, "A" represented the undamaged area in the damaged cerebral hemisphere on the right side, and "B" represented the total area of the undamaged cerebral hemisphere on the left side.
Here, 10 minutes before processing the foresaid MCAO/R model, the rats were administrated with the test samples of Examples 1 to 15 by intraperitoneal injection for one time. The administration amount was 50 milligrams per kilogram (mg/kg) or 5 ml/kg. The actual applied amount was depended on the weight of the rates. The treatment for the vehicle group was the same as that of the experimental group except only solvent was used.
The results of TTC staining of the seven sliced brain tissues of the groups of Examples 1 to 15, the vehicle group and the sham group were shown in FIG. 2. 5 SD rats were used for each experimental groups of Examples 1 to 15 and the vehicle group, while only 3 SD rats were used for the sham group. Table 2: The total infarct volume percent of Examples 1 to 15, the vehicle group, and the sham group.

[2] = tested on: male Sprague Dawley rat (SD rat); assay: Neurobehavioral evaluation (Bederson classification) after MCAO/R; settings: Bederson grade 0 to 4, 50 mg/kg intraperitoneal before MCAO/R

Structure (SMILES) | Total infarct volume percent (%) [1] | Grade, Time point of 0.5-hour after blood reperfusion [2] | Grade, Time point of 1.5-hour after blood reperfusion [2] | Grade, Time point of 24-hour after blood reperfusion ([2]; 50 mg/kg) | Grade, Time point of 24-hour after blood reperfusion [2]
COc1cc(C(=O)NCCCC(=O)O)c(OC)c2c1OCO2 [Example 7] | 15.17% | 2.60 | 2.40 | 1.60 | –
CCOC(=O)c1ccc(NC(=O)c2cc(OC)c3c(c2OC)OCO3)cc1 [Example 15] | 17.76% | 2.80 | 2.60 | – | 2.00
COc1cc(C(=O)NCCC(=O)O)c(OC)c2c1OCO2 [Example 10] | 21.76% | 2.60 | 2.40 | – | 2.20
COc1cc(C(=O)Nc2c(C)n(C)n(-c3ccccc3)c2=O)c(OC)c2c1OCO2 [Example 13] | 32.53% | – | – | – | –
COc1cc(CNC(C)=O)c(OC)c2c1OCO2 [Example 5] | 20.2% | 2.40 | 2.40 | – | 2.40
COc1cc(C(=O)OCc2ccccc2)c(OC)c2c1OCO2 [Example 12] | 35.67% | – | – | – | –
COc1cc(C(=O)Nc2ccc(O)cc2)c(OC)c2c1OCO2 [Example 9] | 14.52% | 2.80 | 2.40 | 1.40 | –
COc1cc(C(=O)N[C@@H](C)C(=O)O)c(OC)c2c1OCO2 [Example 11] | 15.93% | 2.80 | 2.00 | 1.60 | –
CCCCc1c(C)c(OC)c2c(c1OC)OCO2 [Example 2] | 30.75% | – | – | – | –
COc1ccc(C[C@@H](C)NC(=O)c2cc(OC)c3c(c2OC)OCO3)cc1S(N)(=O)=O [Example 6] | 19.67% | 2.60 | 2.40 | – | 2.20
COc1cc(C(=O)Nc2sc(C)cc2C#N)c(OC)c2c1OCO2 [Example 14] | 34.77% | – | – | – | –
COc1cc(C(=O)NCCc2ccc(O)c(O)c2)c(OC)c2c1OCO2 [Example 8] | 22.39% | 2.40 | 2.60 | – | 2.00
